Test results taken from patent publication US10383868B2, “Quinoline containing compounds and their use for treating endoplasmic reticulum stress-related diseases” (priority 2015, dated 2019).

Columns and labels:
Ob/ob mice = experiment: Effect of a SERCA agonist on the level of blood glucose in ob/ob mice; format: in vivo; conditions: n=3; for Blood Glucose Day 0: Day 0 (baseline), fasting glucose, 50 mg/kg i.p. group; for Blood Glucose Day 4: Day 4, fasting glucose, 50 mg/kg i.p. once a day
Method: Ob/ob mice (10 weeks old, n=3) are intraperitoneally (i.p.) injected with 100 μL of a solution containing 0 (vehicle), 10 or 50 mg/kg of a test compound once a day for a total of 5 days. Fasting glucose is measured at baseline and 10 hrs after the administration of the test compound. Glucose levels are measured in blood samples drawn from the tail vein using the OneTouch Ultra 2 Meter (LifeScan, Inc.).

SERCA = experiment: Activation of SERCA, NADH-linked, enzyme-coupled ATPase assay with SR vesicles; format: biochemical; conditions: concentration required for 50% activation of the maximum Vmax, pH 7.0, 5 mM ATP
Method: Test compounds were characterized over a range of concentrations using an NADH-linked, enzyme-coupled ATPase assay. Each well contained […] of SR vesicles (optimized for skeletal or cardiac SR, respectively), 50 mM MOPS (pH 7.0), 100 mM KCl, 5 mM MgCl2, 1 mM EGTA, 0.2 mM NADH, 1 mM phosphoenol pyruvate, 5 IU pyruvate kinase, 5 IU lactate dehydrogenase, and […] A23187 (a calcium ionophore), and CaCl2 was added to set free [Ca^2+] to the specific values. The assay was started upon addition of ATP at a final concentration of 5 mM, and read in a SpectraMax Plus microplate spectrophotometer and the ATPase activities were fitted using the Hill function. EC50 values were determined as the concentrations of the test compounds that were required for 50% activation of the maximum Vmax.

Compound | Blood Glucose Day 0 (Ob/ob mice) | Blood Glucose Day 4 (Ob/ob mice) | EC50 (SERCA)
Cc1ccc2cccc(C(=O)Nc3ccc(OC(C)C)cc3)c2n1 [Compound A1, N-(4-Isopropoxyphenyl)-2-methylquinoline-8-carboxamide] | 319 mg/dL | 348 mg/dL | 600 nM
Cc1ccc2cccc(C(=O)Nc3cc(Br)cs3)c2n1 [Compound B1] | 318 mg/dL | 333 mg/dL | 1200 nM
Cc1ccc2cccc(C(=O)Nc3ccc(Br)s3)c2n1 [Compound B2] | 320 mg/dL | 215 mg/dL | 1000 nM
